Where a name gives a salt, the structure may show the parent alone. Read-outs that look alike come from different tables or passages of the source.
How the values were obtained:
[1] = tested on: 2-phenyl-1,4-benzoquinone-induced writhing; assay: 2-phenyl-1,4-benzoquinone-induced writhing test in mice (analgesic activity); assay type: in vivo; conditions: Mus musculus, sc, read-out: Inhibition in Writhing (%)
Excerpt: Compounds of the present invention are useful as analgesic agents due to their ability to alleviate pain in mammals. […] Exptl. Biol. Med. 95, 729 (1957)].

[2] = tested on: scopolamine induced memory deficit; assay: Dark Avoidance Assay (reversal of scopolamine induced memory deficit); assay type: in vivo; conditions: mice
Procedure: This utility can also be ascertained by determining the ability of these compounds to restore cholinergically deficient memory in the Dark Avoidance Assay. In this assay mice are tested for their ability to remember an unpleasant stimulus for a period of 24 hours. A mouse is placed in a chamber that contains a dark compartment; a strong incandescent light drives it to the dark compartment, where an electric shock is administered through metal plates on the floor. The animal is removed from the testing apparatus and tested again, 24 hours later, for the ability to remember the electric shock.
If scopolamine, an anticholinergic that is known to cause memory impairment, is administered before an animal's initial exposure to the test chamber, the animal re-enters the dark compartment shortly after being placed in the test chamber 24 hours later. This effect of scopolamine is blocked by an active test compound, resulting in a greater interval before re-entry into the dark compartment.
The results for an active compound are expressed as the percent of a group of animals in which the effect of scopolamine is blocked, as manifested by an increased interval between being placed in the test chamber and re-entering the dark compartment.

[3] = mice, dose 20 mg/kg of body wt., subcutaneous

| SMILES | inhibition in vivo at 20 mg/kg [1, 3] | other results |
| --- | --- | --- |
| CN(C)c1cccc(CC(=O)C(F)(F)c2ccccc2)c1 [1,1-Difluoro-3-[3-(dimethylamino)phenyl-1-phenyl-2-propanone] | 58% | – |
| CN(C)c1cccc(OCC(=O)Cc2cccc(Cl)c2)c1 [1-(3-Chlorophenyl)-3-[3-(dimethylamino)phenoxy]-2-propanone] | 41% | – |
| CN(C)c1cccc(CC(=O)Cc2cccc(Cl)c2)c1 [1-(3-Chlorophenyl)-3-[3-(dimethylamino)phenyl]-2-propanone] | 51% | – |
| CN(C)c1ccc(C(=O)C(F)(F)c2ccccc2)cc1 [2,2-Difluoro-1-[4-(dimethylamino)phenyl]-2-phenylethanone] | 67% | – |
| CN(C)c1cccc(C(=O)COc2cccc(Cl)c2)c1 [2-(3-Chlorophenoxy)-1-[3-(dimethylamino)phenyl]ethanone] | 69% | – |
| CN(C)c1cccc(C(=O)Cc2cccc(Cl)c2)c1.Cl [2-(3-Chlorophenyl)-1-[3-(dimethylamino)phenyl]ethanone hydrochloride] | – | % of animals with scopolamine induced memory deficit reversal ([2]; dose 0.16 mg/kg, s.c.): 40% |
| CN(C)c1cccc(C(=O)C(F)(F)c2cccc(Cl)c2)c1 [2-(3-Chlorophenyl)-2,2-difluoro-1-[3-(dimethylamino)phenyl]ethanone hydrochloride] | – | inhibition in vivo at 20 mg/kg [1]: 50% |
| CN(C)c1ccc(C(=O)C(F)c2cccc(Cl)c2)cc1 (centres unmarked) [2-(3-Chlorophenyl)-2-fluoro-1-[4-(dimethylamino)phenyl]ethanone] | 44% | – |
| CN(C)c1cccc(C(=O)C(F)(F)C(O)c2cccc(Cl)c2)c1 (centres unmarked) [3-(3-Chlorophenyl)-2,2-difluoro-3-hydroxy-1-[3-(dimethylamino)phenyl]propanone hydrochloride] | 63% | – |
| CNC(=O)Oc1ccc2c(c1)[C@]1(C)CCN(C)[C@@H]1N2C [physostigmine, reference compound] | – | % of animals with scopolamine induced memory deficit reversal ([2]; dose 0.31 mg/kg, s.c. (reference)): 20% |
| CCC(=O)O[C@](Cc1ccccc1)(c1ccccc1)[C@H](C)CN(C)C [propoxyphene, reference compound] | – | inhibition in vivo at 3.9 mg/kg [1]: 50% |

Source: US5300527A, “Alkylamino-and alkylamino alkyl diarylketones” (Hoechst-Roussel Pharmaceuticals Incorporated, priority 1992, dated 1994)
